{"source": "patent US20240374692A1", "about": "“A NOVEL ACYLATED INSULIN ANALOG” (SUNSHINE LAKE PHARMA CO., LTD., priority 2021, published 2024)", "key": {"[1]": {"conditions": "rat, in vivo, sc, 10 nmol/kg"}, "insulin receptor B": {"target": "T1, insulin receptor B (Homo sapiens, UniProt P06213)", "T1 construct": "expressed in transfected cells", "T1 sequence (P06213 28-758 limits assumed)": "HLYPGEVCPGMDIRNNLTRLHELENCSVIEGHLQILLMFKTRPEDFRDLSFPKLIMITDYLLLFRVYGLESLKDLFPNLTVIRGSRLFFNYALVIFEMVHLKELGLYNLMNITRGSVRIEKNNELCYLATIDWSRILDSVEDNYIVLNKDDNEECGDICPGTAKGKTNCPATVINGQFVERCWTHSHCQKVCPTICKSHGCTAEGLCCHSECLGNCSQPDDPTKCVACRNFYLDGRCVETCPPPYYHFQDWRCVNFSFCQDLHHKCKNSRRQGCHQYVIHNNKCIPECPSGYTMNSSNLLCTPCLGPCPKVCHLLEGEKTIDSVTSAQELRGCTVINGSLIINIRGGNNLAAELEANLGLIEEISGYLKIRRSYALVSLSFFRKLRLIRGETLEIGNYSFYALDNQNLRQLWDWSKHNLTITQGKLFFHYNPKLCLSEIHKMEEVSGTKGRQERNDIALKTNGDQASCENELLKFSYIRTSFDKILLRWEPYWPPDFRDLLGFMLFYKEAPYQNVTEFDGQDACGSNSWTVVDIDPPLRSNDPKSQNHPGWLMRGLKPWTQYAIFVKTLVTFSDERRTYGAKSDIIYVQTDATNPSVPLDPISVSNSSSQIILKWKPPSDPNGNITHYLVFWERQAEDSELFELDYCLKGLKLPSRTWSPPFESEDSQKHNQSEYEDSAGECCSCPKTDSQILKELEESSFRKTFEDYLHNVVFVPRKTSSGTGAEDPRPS", "T1 sequence (P06213 763-1382 partner limits assumed)": "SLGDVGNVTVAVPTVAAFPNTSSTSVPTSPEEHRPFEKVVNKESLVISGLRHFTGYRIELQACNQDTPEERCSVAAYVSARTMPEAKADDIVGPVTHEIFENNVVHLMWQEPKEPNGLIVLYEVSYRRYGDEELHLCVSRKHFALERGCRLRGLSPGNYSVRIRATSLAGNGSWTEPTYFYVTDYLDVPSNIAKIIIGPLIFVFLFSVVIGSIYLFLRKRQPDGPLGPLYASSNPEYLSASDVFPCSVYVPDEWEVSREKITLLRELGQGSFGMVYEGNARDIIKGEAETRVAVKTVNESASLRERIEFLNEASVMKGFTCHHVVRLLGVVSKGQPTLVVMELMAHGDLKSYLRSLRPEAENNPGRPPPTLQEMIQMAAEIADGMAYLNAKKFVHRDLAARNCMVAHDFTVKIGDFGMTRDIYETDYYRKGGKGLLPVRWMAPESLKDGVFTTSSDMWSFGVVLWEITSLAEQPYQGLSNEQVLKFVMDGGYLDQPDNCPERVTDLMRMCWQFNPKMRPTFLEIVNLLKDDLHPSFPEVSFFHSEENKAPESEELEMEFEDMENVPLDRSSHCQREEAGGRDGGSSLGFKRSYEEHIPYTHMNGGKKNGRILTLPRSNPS", "experiment": "Insulin receptor B autophosphorylation in transfected cells (Cisbio Phospho-IR beta Tyr1150/1151 kit)", "format": "cell-based", "conditions": "for Relative HI activity: relative to human insulin", "procedure": "The phosphorylation level of insulin receptor B was detected by Cisbio's Phospho-IR beta (Tyr1150/1151) kit method to evaluate the biological activity of insulin. The cells were seeded into a 96-well plate overnight, and after the serum in the medium was removed, 40 μl of serum-free medium was added to culture for about 4 h. Then a dilution series of insulin derivatives were prepared with blank solution (0.6% casein, 0.06 mg/mL EDTA, 1×DPBS) and incubated with cells in the 96-well plate for 5 min in a CO2 incubator (37° C., 5% CO2). The liquid in the 96-well plate was poured off, 100 µL of a mixture of lysis buffer (2% Triton X-100, 150 mM NaCl, 50 mM HEPES, pH=7) and inhibitor (Blocking Reagent in the kit) was added to lyse the cells, then the plate was shaken at 350 rpm for 30 min. Relative activity (in percent (%)) was assessed by measuring insulin receptor phosphorylation levels in the supernatant after cell lysis and fitting a curve to the data using nonlinear regression in Graphpad Prism 5 software. Related assays were also used, in which the blank solution also contained 1.5% HSA to simulate physiological conditions. Changes in the phosphorylation levels of the insulin-activated insulin receptors of the invention were detected as an indirect reflection of the albumin binding activity."}, "[2]": {"conditions": "dog, in vivo, iv, 10 nmol/kg", "protocol": "Two beagle dogs, one in each group, a double-cycle crossover design was used, with a washout period of 1 week, and a single dose of 10 nmol/kg of Icodec or Insulin-a10 was administered to the lateral small saphenous vein of the hind limb in each cycle, the blood was collected and plasma was centrifuged at 0.083, 0.25, 0.5, 1, 2, 6, 8, 24, 30, 48, 72 and 96 h after administration, the concentration of Icodec or Insulin-a10 in the plasma was detected."}, "[3]": {"tested_on": "STZ-induced type I diabetes mellitus (T1DM) C57BL/6 mice", "experiment": "Hypoglycemic effect, repeated administration (three times) to STZ-induced T1DM C57BL/6 mice (Example 6)", "format": "in vivo", "set-up": "key to random blood glucose: blood glucose in mmol/L", "conditions": "for random blood glucose: 500 nmol/Kg S.C. three times, Mean ± SEM, n = 7", "procedure": "SPF grade C57BL/6 mice were reared in a suitable rearing box in a barrier environment, with a rearing temperature of 20-26° C., a humidity of 40-70%, a time between day and night of 12 h/12 h, and the mice had free access to standard food and autoclaved sterilization water. After the 3-day quarantine period and the 2-day acclimation period, the mice were fasted for 12 h, and the mice were injected intraperitoneally with streptozotocin solution (STZ, 13 mg/mL, in citrate buffer) at 130 mg/kg. 3 Days and 7 days after administration of streptozotocin, random blood glucose and fasting blood glucose were detected, and the random blood glucose value above 25 mmol/L and fasting blood glucose value above 11.1 mmol/L were selected as T1DM model mice for follow-up experiments. On the day before administration, random blood glucose was monitored and mice were weighed. Mice were divided into 6 groups according to random blood glucose and body weight.\nSubcutaneous administration (S.C.) was used to administer the corresponding vehicle or drug, once every 4-5 days, for a total of 3 administrations. During the experiment, the animals were allowed to eat and drink water freely. The random blood glucose before the first administration, and 0.25, 0.5, 1, 2, 4, 6, 8, 10, 24, 48, 72, and 96 h after administration were assessed, as well as the random blood glucose before the second and third administration, and 0.5, 1, 2, 6, 24, 48, 72, 96 and 120 h after administration.\n(§1) All raw data were entered into Excel files and expressed as Mean±SEM. Statistical analysis of data was performed using Graphpad Prism 7.0 software, one-way or two-way ANOVA comparison method, and P<0.05 was used as the criterion for significant differences."}, "normal C57BL/6 mice": {"tested_on": "normal C57BL/6 mice", "experiment": "Hypoglycemic effect, single subcutaneous administration to normal C57BL/6 mice", "format": "in vivo", "set-up": "blood glucose: unit not given here", "conditions": "for blood glucose: Mean ± SEM, n = 6", "procedure": "SPF grade C57BL/6 mice were reared in a suitable rearing box in a barrier environment, with a rearing temperature of 20-26° C., a humidity of 40-70%, a time between day and night of 12 h/12 h, and the mice had free access to standard food and autoclaved sterilization water. After a 3-day quarantine period and a 2-day acclimation period, random blood glucose was measured and mice were weighed. Mice were divided into 6 groups according to random blood glucose and body weight.\nSingle subcutaneous administration (S.C.) was used to administer the corresponding vehicle or drug. The control group was administered the vehicle PBS without fasting during the whole process, and the animals were allowed to eat and drink freely. Random blood glucose values of C57 mice were measured before administration and at 0.25, 0.5, 1, 2, 4, 6, 8, 10, 24, 48, 54, 72 and 96 hours after administration.\nas §1"}, "[4]": {"conditions": "single S.C., Degludec 200 nmol/Kg, others 1400 nmol/Kg"}}, "note": "Like-named read-outs stand apart in the source and are kept apart here."}
{"substance": "A14E, B16H, B25H, B29K(N(ε)-COOH(CH2)18CO-L-Lys-CO(CH2)2CO—(OEG)2), desB30 human insulin analog [Insulin-a10]", "values": [{"measurement": "AUClast", "setting": "[1]", "result": 9350, "unit": "ng·h/mL"}, {"measurement": "MRTINF_obs", "setting": "[1]", "result": 29.2, "unit": "h"}, {"measurement": "T1/2", "setting": "[1]", "result": 17.2, "unit": "h"}, {"measurement": "EC50", "setting": "insulin receptor B; 0% HSA", "result": 85.5, "unit": "nM"}, {"measurement": "Relative HI activity", "setting": "insulin receptor B; 0% HSA", "result": 1.44, "unit": "%"}, {"measurement": "EC50", "setting": "insulin receptor B; 1.5% HSA", "result": 1310, "unit": "nM"}, {"measurement": "Relative 0% HSA activity", "setting": "insulin receptor B; 1.5% HSA relative to 0% HSA", "result": 6.52, "unit": "%"}, {"measurement": "Relative HI activity", "setting": "insulin receptor B; 1.5% HSA", "result": 0.20, "unit": "%"}, {"measurement": "AUClast", "setting": "[2]", "result": "28300 ± 3500", "unit": "ng·h/mL"}, {"measurement": "T1/2", "setting": "[2]", "result": "46 ± 10.8", "unit": "h"}, {"measurement": "effective glucose control time", "setting": "[3]; 500 nmol/Kg S.C.", "result": 120, "unit": "h"}, {"measurement": "random blood glucose", "setting": "[3]; Day 0 (1st)", "result": "32.0 ± 1.7"}, {"measurement": "random blood glucose", "setting": "[3]; Day 1", "result": "19.7 ± 6.6"}, {"measurement": "random blood glucose", "setting": "[3]; Day 4 (2nd)", "result": "27.6 ± 4.4"}, {"measurement": "random blood glucose", "setting": "[3]; Day 5", "result": "15.2 ± 8.9"}, {"measurement": "random blood glucose", "setting": "[3]; Day 9 (3rd)", "result": "26.6 ± 5.7"}, {"measurement": "random blood glucose", "setting": "[3]; Day 10", "result": "11.7 ± 9.4"}, {"measurement": "random blood glucose", "setting": "[3]; Day 14", "result": "26.1 ± 6.2"}, {"measurement": "time after administration at which blood glucose returned to normal level", "setting": "[3]; 500 nmol/Kg S.C., after the first administration", "result": 96, "unit": "h"}, {"measurement": "time after administration at which blood glucose returned to normal level", "setting": "[3]; 500 nmol/Kg S.C., after the second and third administrations", "result": 120, "unit": "h"}, {"measurement": "time after each administration at which blood glucose reached the lowest level", "setting": "[3]; Icodec 250, 500 and 1000 nmol/kg, Insulin-a3 and Insulin-a10 500 nmol/Kg", "result": 24, "unit": "h"}, {"measurement": "glucose control effect compared with the Icodec-1000 nmol/kg group", "setting": "[3]; test drug 500 nmol/Kg S.C.", "result": "equivalent"}, {"measurement": "blood glucose", "setting": "normal C57BL/6 mice; 0 h (before administration), single S.C., Degludec 200 nmol/Kg, others 1400 nmol/Kg", "result": "9.1 ± 1.5"}, {"measurement": "blood glucose", "setting": "normal C57BL/6 mice; 0.25 h after single S.C., Degludec 200 nmol/Kg, others 1400 nmol/Kg", "result": "7.9 ± 1.5"}, {"measurement": "blood glucose compared with the control group", "setting": "normal C57BL/6 mice; 1 h after single S.C. administration", "result": "decreased significantly"}, {"measurement": "blood glucose", "setting": "normal C57BL/6 mice; 1 h after single S.C., Degludec 200 nmol/Kg, others 1400 nmol/Kg", "result": "4.4 ± 0.6"}, {"measurement": "blood glucose", "setting": "normal C57BL/6 mice; 2 h after single S.C., Degludec 200 nmol/Kg, others 1400 nmol/Kg", "result": "4.4 ± 1.3"}, {"measurement": "blood glucose", "setting": "normal C57BL/6 mice; 4 h after single S.C., Degludec 200 nmol/Kg, others 1400 nmol/Kg", "result": "3.7 ± 1.0"}, {"measurement": "blood glucose", "setting": "normal C57BL/6 mice; 6 h after single S.C., Degludec 200 nmol/Kg, others 1400 nmol/Kg", "result": "3.5 ± 1.1"}, {"measurement": "blood glucose", "setting": "normal C57BL/6 mice; 8 h after single S.C., Degludec 200 nmol/Kg, others 1400 nmol/Kg", "result": "3.1 ± 1.0"}, {"measurement": "blood glucose", "setting": "normal C57BL/6 mice; 10 h after single S.C., Degludec 200 nmol/Kg, others 1400 nmol/Kg", "result": "2.8 ± 0.7"}, {"measurement": "blood glucose", "setting": "normal C57BL/6 mice; 24 h after single S.C., Degludec 200 nmol/Kg, others 1400 nmol/Kg", "result": "2.1 ± 0.7"}, {"measurement": "blood glucose", "setting": "normal C57BL/6 mice; 48 h after single S.C., Degludec 200 nmol/Kg, others 1400 nmol/Kg", "result": "1.7 ± 0.6"}, {"measurement": "blood glucose", "setting": "normal C57BL/6 mice; 72 h after single S.C., Degludec 200 nmol/Kg, others 1400 nmol/Kg", "result": "1.8 ± 0.1"}, {"measurement": "blood glucose", "setting": "normal C57BL/6 mice; 96 h after single S.C., Degludec 200 nmol/Kg, others 1400 nmol/Kg", "result": "4.0 ± 4.0"}, {"measurement": "effect on blood glucose control compared with Icodec", "setting": "normal C57BL/6 mice; single S.C. 1400 nmol/Kg", "result": "consistent with the trend of Icodec and can be maintained for a longer time"}, {"measurement": "effective blood glucose control time", "setting": "normal C57BL/6 mice; [4]", "result": "more than 96 h"}, {"measurement": "time after administration at which blood glucose reached the lowest level", "setting": "normal C57BL/6 mice; [4]", "result": 72, "unit": "h"}, {"measurement": "time after administration at which blood glucose returned to normal", "setting": "normal C57BL/6 mice; [4]", "result": "> 96", "unit": "h"}]}
